# Test results: patent EP0022621A1, “Peptides related to somatostatin, their preparation and pharmaceutical compositions containing them” (ELI LILLY AND COMPANY, priority 1979, dated 1981)
# Several values for one entry are separate records, joined by “and”; a condition that tells them apart may be missing. Identical values can stand only once. Positions of bridges follow the written chain, without caps; N, C: chain ends. No end group written: not given here.
# Assays:
# glucagon = test: Insulin and Glucagon Inhibition In Dogs (L-alanine stimulation, serum glucagon by radioimmunoassay); assay type: in vivo, dog; details: for Result: inhibition of glucagon: fasted dog, L-alanine infusion; for inhibition of secretion of glucagon: dog stimulated with L-alanine, dose not stated
# Description: (§1) B. Insulin and Glucagon Inhibition In Dogs:
# (§2) A normal dog is fasted overnight. An intravenous (I.V.) infusion of the test compound (dissolved in saline) is begun. Thirty minutes thereafter an additional infusion of L-alanine (dissolved in saline) is begun and is continued for a total of 15 minutes so that a total dose of about 1 mmole of L-alanine per kg. body weight is given. Infusion of the test compound is continued for an additional 15 minute period.
# (§3) Blood samples are taken periodically before (at -20, -10 and -1 minutes) and after (5, 10, 15, 30, 35, 40, 45, 50, 60, 90, 120 and 150 minutes) the start of the infusion of the test compound. The serum insulin and serum glucagon concentrations in the blood are determined by radioimmunoassay. A plot is made of the glucagon and insulin concentrations versus time. The plot obtained from the test compound is compared to plots obtained from somatostatin and saline (controls) in similar experiments.
# (§4) Infusion of L-alanine (in the absence of somatostatin or active test compound) causes an abrupt increase in serum insulin and glucagon concentrations. The concentrations return to basal levels after the L-alanine infusion is terminated. Infusion of somatostatin (alone) causes a decrease in basal serum concentrations of insulin and glucagon.
# [1] = tested on: growth hormone (GH) secretion; test: Growth Hormone Inhibition In Rats (pentobarbital-stimulated GH secretion, serum GH by radioimmunoassay); assay type: in vivo; details: for GH Serum Conc.: male rats, sodium pentobarbital 4 mg/rat I.P., 20 minutes, Mean ± SEM; for % Inhibition: inhibition of GH release compared to saline controls
# Description: A. Growth Hormone Inhibition In Rats:
# This test is a modification of the method of P. Brazeau et al. Endocrinology, 94, 184 (1974). Male rats (weighing 100-110 g.) are divided into three groups of eight rats each. Each rat is administered sodium pentobarbital at a dose of 4 mg/rat (I.P.) to stimulate growth hormone (GH) secretion. Simultaneously, one group of rats receives the test compound (S.C.); the second group receives somatostatin (S.C.); and the third group (control) receives saline (S.C.). Twenty- minutes later, the animals are decapitated and blood samples are collected. The serum concentration of growth hormone (GH) is determined by'radioimmunoassay. The mean GH concentration (+ standard error of the mean) is calculated for each group. The percent inhibition of GH release (as compared to saline controls) is then calculated for the test compound and for somatostatin. When tested as above-described, the peptides of Examples 2, 4, 6, 8 and 10, representative of the peptides of Formula III, gave the results set forth below in Table I: […]
# insulin = test: Insulin and Glucagon Inhibition In Dogs (L-alanine stimulation, serum insulin by radioimmunoassay); assay type: in vivo, dog; details: for Result: inhibition of insulin: fasted dog, L-alanine infusion; for inhibition of secretion of insulin: dog stimulated with L-alanine, dose not stated
# Description: as §1, §2, §3, §4
# [2] = I.V. infusion dose 0.05 µg/kg/min
# [3] = I.V. infusion dose 0.098, 0.181, 0.291 µg/kg/min
# [4] = I.V. infusion dose 0.06 µg/kg/min
# [5] = I.V. infusion dose 0.20 µg/kg/min
# [6] = infusion alone, without L-alanine, dog
Substance,Result: inhibition of glucagon (glucagon; [2]),inhibition of secretion of glucagon (glucagon),GH Serum Conc. ([1]; dose 2 µg/kg S.C.),GH Serum Conc. ([1]; dose 50 µg/kg S.C.),% Inhibition ([1]; dose 2 µg/kg S.C.),% Inhibition ([1]; dose 50 µg/kg S.C.),Result: inhibition of insulin (insulin; [2]),inhibition of secretion of insulin (insulin),also measured
D-Alanyl-glycyl-L-cysteinyl-L-lysyl-D-alanyl-L-phenylalanyl-L-phenylalanyl-D-tryptophyl-L-lysyl-L-threonyl-L-cyclohexylalanyl-L-threonyl-L-seryl-D-cysteine cyclic (3 -> 14) disulfide [Example 4],No inhibition of glucagon and insulin,did not inhibit,5.5 ± 0.7 ng/mL,8.4 ± 3.4 ng/mL,95%,92%,No inhibition of glucagon and insulin,did not inhibit,
D-Alanyl-glycyl-L-cysteinyl-L-lysyl-D-alanyl-L-phenylalanyl-L-phenylalanyl-D-tryptophyl-L-lysyl-L-threonyl-L-phenylalanyl-L-threonyl-L-seryl-D-cysteine cyclic (3 -> 14) disulfide [Example 2],,did not inhibit,7.1 ± 3.8 ng/mL,2.0 ± 0.3 ng/mL,94.9%,98.6%,,did not inhibit,Result: inhibition of glucagon (glucagon; [3]): No inhibition of glucagon and insulin; GH Serum Conc. ([1]; dose 0.25 µg/kg S.C.): 51.0 ± 14.1 ng/mL; GH Serum Conc. ([1]; dose 1 µg/kg S.C.): 30.6 ± 16.0 ng/mL; GH Serum Conc. ([1]; dose 2.5 µg/kg S.C.): 14.8 ± 10.9 ng/mL; GH Serum Conc. ([1]; dose 25 µg/kg S.C.): 2.8 ± 0.2 ng/mL; % Inhibition ([1]; dose 0.25 µg/kg S.C.): 37.4%; % Inhibition ([1]; dose 1 µg/kg S.C.): 79.8%; % Inhibition ([1]; dose 2.5 µg/kg S.C.): 81.8%; % Inhibition ([1]; dose 25 µg/kg S.C.): 98.2%; Result: inhibition of insulin (insulin; [3]): No inhibition of glucagon and insulin
D-Seryl-glycyl-L-cysteinyl-L-lysyl-L-alanyl-L- phenylalanyl-L-phenylalanyl-D-tryptophyl-L-lysyl-L-threonyl-L-cyclohexylalanyl-L-threonyl-L-seryl-D- cysteine cyclic (3 -> 14) disulfide [Example 10],,,68.8 ± 28.2 ng/mL,2.2 ± 0.1 ng/mL,34%,98%,,,Result: inhibition of glucagon (glucagon; [4]): Partial inhibition of glucagon and insulatum.; Result: inhibition of insulin (insulin; [4]): Partial inhibition of glucagon and insulatum.
D-Seryl-glycyl-L-cysteinyl-L-lysyl-L-alanyl-L-phenylalanyl-L-phenylalanyl-D-tryptophyl-L-lysyl-L-threonyl-D-phenylalanyl-L-threonyl-L-seryl-D-cysteine cyclic (3 -> 14) 4isulfide [Example 8],,did not inhibit,79.6 ± 36.2 ng/mL,40.0 ± 13.4 ng/mL,0%,39%,,did not inhibit,Result: inhibition of glucagon (glucagon; [5]): No inhibition of glucagon and insulin; Result: inhibition of insulin (insulin; [5]): No inhibition of glucagon and insulin
D-Seryl-glycyl-L-cysteinyl-L-lysyl-L-alanyl-L-phenylalanyl-L-phenylalanyl-D-tryptophyl-L-lysyl-L-threonyl-L-phenylalanyl-L-threonyl-L-seryl-D-cysteine cyclic (3 -> 14) disulfide [Example 6],Significant inhibition of glucagon and insulin,,15.5 ± 5.4 ng/mL,4.0 ± 0.5 ng/mL,79%,95%,Significant inhibition of glucagon and insulin,,
"Somatostatin (AGCKNFFWKTFTSC; disulfide 3-14 (inferred); ends not checked; UniProt P61278 103-116, looked up) [reference compound]",,inhibits the increase,,,,86.7% and 52.5% and 57.9% and 91% and 93% and 64% and 98%,,inhibits the increase,basal serum concentration of glucagon (glucagon; [6]): decrease; basal serum concentration of insulin (insulin; [6]): decrease
